The values that follow come from patent US20220362396A1, “AMINO-PYRAZINECARBOXAMIDE COMPOUNDS, CONJUGATES, AND USES THEREOF” (Silverback Therapeutics, Inc., priority 2018, published 2022).

SMILES strings stand for the structures.

One assay deals with T1, TGFBR2 (Homo sapiens, UniProt P37173).
T1 construct: purchased Reaction Biology Corp
The experiment in a line: TGFBR2 RBC assay (enzyme inhibition assay, Reaction Biology Corp.). It is filed as biochemical. How it is done:
Compounds of the disclosure were also assayed by Reaction Biology Corp. using the TGFBR2 RBC assay (enzyme inhibition assay). […] NT refers to not tested.

Assay [1] relates to TGFβ/SMAD Signaling Pathway SBE reporter cell line. The experiment in a line: TGFβ reporter assay, in vitro small molecule screening (luciferase). It is filed as cell-based. The note with it: TGFβ stimulation, luminescence. The method, boiled down:
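SBE luciferase reporter cells (~0.5×10^6 cells/mL) preincubated with compound 5-6 h at 37 °C in 0.5% FBS MEM, then stimulated with TGFβ (12 ng/mL stock) for 18 h. Luminescence read after luciferase substrate; EC50 from curve fits.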
In general terms: Reporter assays use an easily measured gene product as a stand-in for the process of interest.

Broadly, the IC50 is the concentration at which inhibition is half-maximal. The term EC50 denotes the concentration giving half of the maximal effect.

T1 sequence (P37173 23-567): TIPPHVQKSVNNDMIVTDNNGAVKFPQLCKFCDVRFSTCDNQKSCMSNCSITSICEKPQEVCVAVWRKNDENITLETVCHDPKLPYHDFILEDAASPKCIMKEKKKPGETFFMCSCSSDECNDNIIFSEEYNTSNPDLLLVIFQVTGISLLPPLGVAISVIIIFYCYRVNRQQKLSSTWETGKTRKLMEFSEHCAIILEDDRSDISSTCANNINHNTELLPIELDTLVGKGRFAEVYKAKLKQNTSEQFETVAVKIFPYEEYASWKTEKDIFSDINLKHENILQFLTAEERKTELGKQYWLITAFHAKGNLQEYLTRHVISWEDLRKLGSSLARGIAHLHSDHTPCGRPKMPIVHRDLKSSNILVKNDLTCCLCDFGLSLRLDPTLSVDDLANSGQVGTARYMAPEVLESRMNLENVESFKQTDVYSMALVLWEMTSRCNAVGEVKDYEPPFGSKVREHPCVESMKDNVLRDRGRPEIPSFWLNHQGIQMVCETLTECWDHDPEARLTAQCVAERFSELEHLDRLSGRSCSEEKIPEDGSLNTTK

At TGFBR2, `COCCN(C)c1ccncc1NC(=O)c1nc(-c2ccc(CCNC(=O)OCc3ccccc3)cc2)cnc1N` [Compound 101] yielded an IC50 of 0.05 to 0.1 µM. The molecule also came in with an EC50 in assay [1] of 0.1 to 1 µM.
`Nc1ncc(-c2ccc(CCNC(=O)OCc3ccccc3)cc2)nc1C(=O)Nc1cnccc1N1CCOCCC1=O` [Compound 47]: the IC50 against TGFBR2 was greater than 1 µM. This molecule also displayed an EC50 in assay [1] greater than 1 µM.
The molecule `NCCc1cc(F)c(-c2cnc(N)c(C(=O)Nc3cnccc3N3CCOCC3)n2)c(F)c1` [Compound 57] yielded an IC50 against TGFBR2 of 0.1 to 1 µM. In assay [1], this molecule registered an EC50 of 0.1 to 1 µM.
Regarding `CC1CCNc2ccc(-c3cnc(N)c(C(=O)Nc4cnccc4N4CCOCC4)n3)cc21` (centres unmarked) [Compound 216], on TGFBR2, the IC50 is less than 0.05 µM. Also, in assay [1], the EC50 lay in the range of 0.05 to 0.1 µM.
In the same order, the values of `CC(CN)Oc1ccc(-c2cnc(N)c(C(=O)Nc3cnccc3N3CCCOCC3)n2)cc1` (centres unmarked) [Compound 256] are 0.05 to 0.1 µM and 0.1 to 1 µM.
In the same order, the values of `Nc1ncc(-c2cccc(Cl)c2)nc1C(=O)Nc1cnccc1N1CCOCC1` [Compound 152] are less than 0.05 µM and 0.1 to 1 µM.
Turning to `Nc1ncc(-c2ccc(OCC[C@@H](N)C(=O)O)cc2)nc1C(=O)Nc1cnccc1N1CCOCC1` [Compound 275], the IC50 on TGFBR2 lay within 0.05 to 0.1 µM. Besides, the half-maximal effective concentration (EC50) in assay [1] is greater than 1 µM.
Take `Nc1ncc(-c2ccc(CCCNC(=O)OCc3ccccc3)cc2)nc1C(=O)Nc1cnccc1N1CCOCC1` [Compound 1.2]: the IC50 against TGFBR2 is less than 0.05 µM. The half-maximal effective concentration (EC50) in assay [1] is 0.1 to 1 µM.
On TGFBR2, `CNCCc1ccc(-c2cnc(N)c(C(=O)Nc3cnccc3N3CCOCC3)n2)cc1` [Compound 44] had an IC50 of 0.1 to 1 µM. The EC50 in assay [1] lay in the range of 0.1 to 1 µM.
For `NCCCOc1ccc(-c2cnc(N)c(C(=O)Nc3cnccc3N3CCOCC3)n2)cc1` [Compound 65], the IC50 at TGFBR2 was less than 0.05 µM. Besides, the EC50 in assay [1] was in the range of 0.1 to 1 µM.
The corresponding values for `Nc1ncc(-c2cccc(CCNC(=O)OCc3ccccc3)c2)nc1C(=O)Nc1cnccc1N1CCOCC1` [Compound 177] are 0.05 to 0.1 µM and 0.1 to 1 µM.
In the same order, the values of `Nc1ncc(-c2ccc(CCNC(=O)OCc3ccccc3)cc2F)nc1C(=O)Nc1cnccc1N1CCOCC1` [Compound 50] are less than 0.05 µM and 0.1 to 1 µM.
On TGFBR2, `Nc1ncc(-c2ccc(S(=O)(=O)N3CCNCC3)cc2)nc1C(=O)Nc1cnccc1N1CCOCC1` [Compound 62] came in with an IC50 of 0.1 to 1 µM. In assay [1], this molecule displayed an EC50 of 0.05 to 0.1 µM.
The corresponding values for `CC(C)(C)OC(=O)N1CCc2cc(-c3cnc(N)c(C(=O)Nc4cnccc4N4CCOCC4)n3)ccc2C1` [Compound 78] are less than 0.05 µM and less than 0.05 µM.
In the same order, the values of `N#Cc1ccc(-c2ccncc2NC(=O)c2nc(-c3ccc(CCNC(=O)OCc4ccccc4)cc3)cnc2N)cc1` [Compound 15] are 0.1 to 1 µM and 0.1 to 1 µM.
As for `CC(C)(C)OC(=O)NC1Cc2ccc(-c3cnc(N)c(C(=O)Nc4cnccc4N4CCOCC4)n3)cc2C1` (centres unmarked) [Compound 212], the IC50 against TGFBR2 is less than 0.05 µM. In assay [1], the EC50 lay within 0.1 to 1 µM.
The corresponding values for `Nc1ncc(-c2ccc3c(c2)CNCC3)nc1C(=O)Nc1cnccc1N1CCOCC1` [Compound 67] are 0.05 to 0.1 µM and 0.05 to 0.1 µM.
At TGFBR2, `Nc1ncc(-c2ccc(OC3CNC3)cc2)nc1C(=O)Nc1cnccc1N1CCOCC1` [Compound 219] registered an IC50 of less than 0.05 µM. In assay [1], this molecule showed an EC50 of 0.05 to 0.1 µM.
The corresponding values for `Nc1ncc(-c2ccc(CNC(=O)[C@@H]3CCCN3)cc2)nc1C(=O)Nc1cnccc1N1CCOCC1` [Compound 110] are less than 0.05 µM and 0.1 to 1 µM.
In the same order, the values of `CNc1ncc(-c2ccc(OC(C)CN)cc2)nc1C(=O)Nc1cnccc1N1CCOCC1` (centres unmarked) [Compound 254] are greater than 1 µM and greater than 1 µM.
Turning to `CC(C)(C)OC(=O)N1CCc2ccc(-c3cnc(N)c(C(=O)Nc4cnccc4N4CCOCC4)n3)cc2C1` [Compound 68], the IC50 on TGFBR2 is less than 0.05 µM. The molecule further displayed an EC50 in assay [1] of 0.1 to 1 µM.
In the same order, the values of `NCCc1ccc(-c2cnc(N)c(C(=O)Nc3cncc(-c4ccccc4N)c3)n2)cc1` [Compound 148] are 0.1 to 1 µM and greater than 1 µM.
In the same order, the values of `Nc1ncc(N2CCC3(CCNCC3)C2)nc1C(=O)Nc1cnccc1N1CCOCC1` [Compound 114] are greater than 1 µM and greater than 1 µM.
The molecule `COC(=O)c1cc(-c2cnc(NC(=O)OC(C)(C)C)c(C(=O)Nc3cnccc3N3CCOCC3)n2)ccc1OCCCNC(=O)OC(C)(C)C` [Compound 242] registered an IC50 at TGFBR2 of 0.05 to 0.1 µM. The molecule also showed an EC50 in assay [1] greater than 1 µM.
Regarding `COc1ccc(OC)c(-c2cnc(N)c(C(=O)Nc3cnccc3N3CCOCC3)n2)c1` [Compound 159], at TGFBR2, the IC50 is 0.1 to 1 µM. In assay [1], this molecule yielded an EC50 of 0.1 to 1 µM.
Molecule `Nc1ncc(-c2ccc(CCNC(=O)OCc3ccccc3)cc2)nc1C(=O)Nc1cnccc1N1CCS(=O)(=O)CC1` [Compound 52] showed an IC50 on TGFBR2 greater than 1 µM. In assay [1], the EC50 is 0.1 to 1 µM.
`NCCCc1ccc(-c2cnc(N)c(C(=O)Nc3cc(F)ccc3N3CCOCC3)n2)cc1` [Compound 66]: the IC50 against TGFBR2 lay within 0.1 to 1 µM. The molecule also came in with an EC50 in assay [1] greater than 1 µM.
The corresponding values for `Nc1ncc(-c2ccc(CCNC(=O)OCc3ccccc3)cc2)nc1C(=O)Nc1cncc(-c2ccccc2[N+](=O)[O-])c1` [Compound 144] are less than 0.05 µM and greater than 1 µM.
The corresponding values for `NCCCc1ccc(-c2cnc(N)c(C(=O)Nc3cnccc3N3CCOCC3)c2)cc1` [Compound 69] are greater than 1 µM and greater than 1 µM.
As for `COC(=O)[C@@H](N)Cc1ccc(-c2cnc(N)c(C(=O)Nc3cnccc3N3CCOCC3)n2)cc1` [Compound 203], the IC50 against TGFBR2 is less than 0.05 µM. In assay [1], the EC50 is greater than 1 µM.
In the same order, the values of `NCCc1ccc(-c2cnc(N)c(C(=O)Nc3cnccc3-n3cncn3)n2)cc1` [Compound 187] are less than 0.05 µM and 0.1 to 1 µM.
Turning to `Nc1cc(-c2ccncc2NC(=O)c2nc(-c3ccc(CCNC(=O)OCc4ccccc4)cc3)cnc2N)ccn1` [Compound 40], at TGFBR2, the IC50 was less than 0.05 µM. Besides, in assay [1], the EC50 is greater than 1 µM.
In the same order, the values of `NCCCCc1ccc(-c2cnc(N)c(C(=O)Nc3cnccc3N3CCOCC3)n2)cc1` [Compound 73] are less than 0.05 µM and 0.05 to 0.1 µM.
The corresponding values for `Nc1ncc(-c2ccc3c(c2)CCCC3O)nc1C(=O)Nc1cnccc1N1CCOCC1` (centres unmarked) [Compound 245] are less than 0.05 µM and 0.1 to 1 µM.
The corresponding values for `Nc1ncc(-c2ccc(N3CCC(N)CC3)cc2)nc1C(=O)Nc1cnccc1N1CCOCC1` [Compound 279] are less than 0.05 µM and 0.05 to 0.1 µM.
At TGFBR2, `CC(C)(C)OC(=O)N[C@H](CO)Cc1ccc(-c2cnc(N)c(C(=O)Nc3cnccc3N3CCOCC3)n2)cc1` [Compound 209] came in with an IC50 of less than 0.05 µM. This molecule also showed an EC50 in assay [1] of 0.1 to 1 µM.
The corresponding values for `Nc1ncc(-c2ccc(Cl)cc2Cl)nc1C(=O)Nc1cnccc1N1CCOCC1` [Compound 153] are 0.1 to 1 µM and greater than 1 µM.
The corresponding values for `NCCNC(=O)Cc1ccc(-c2cnc(N)c(C(=O)Nc3cnccc3N3CCOCC3)n2)cc1` [Compound 80] are 0.05 to 0.1 µM and 0.1 to 1 µM.
The corresponding values for `COc1ccc(-c2cnc(N)c(C(=O)Nc3cnccc3N3CCOCC3)n2)c(OC)c1` [Compound 157] are 0.1 to 1 µM and 0.1 to 1 µM.
Consider `NCC1CCc2cc(-c3cnc(N)c(C(=O)Nc4cnccc4N4CCOCC4)n3)ccc2O1` (centres unmarked) [Compound 237], for which the IC50 at TGFBR2 was less than 0.05 µM. In assay [1], this molecule came in with an EC50 of 0.05 to 0.1 µM.
In the same order, the values of `Cc1nccn1-c1ccncc1NC(=O)c1nc(-c2ccc(CCNC(=O)OCc3ccccc3)cc2)cnc1N` [Compound 3.1, Benzyl (4-(5-amino-6-((4-(2-methyl-1H-imidazol-1-yl)pyridin-3-yl)carbamoyl)pyrazin-2-yl)phenethyl)carbamate] are less than 0.05 µM and 0.1 to 1 µM.
On to `CC1c2ccc(-c3cnc(N)c(C(=O)Nc4cnccc4N4CCOCC4)n3)cc2CCN1C(=O)OC(C)(C)C` (centres unmarked) [Compound 225], for which the IC50 on TGFBR2 fell in the range of 0.1 to 1 µM. The molecule further gave an EC50 in assay [1] of 0.1 to 1 µM.
With `Nc1ncc(-c2ccc3c(c2)OCCN3)nc1C(=O)Nc1cnccc1N1CCOCC1` [Compound 217], the IC50 against TGFBR2 was less than 0.05 µM. The EC50 in assay [1] was 0.1 to 1 µM.
In the same order, the values of `NCCc1ccc(-c2cnc(N)c(C(=O)Nc3cnc(N)cc3N3CCOCC3)n2)cc1` [Compound 135] are greater than 1 µM and greater than 1 µM.
As for `CC(C)(C)OC(=O)N[C@@H](Cc1ccc(-c2cnc(N)c(C(=O)Nc3cnccc3N3CCOCC3)n2)cc1)C(=O)O` [Compound 207], the IC50 against TGFBR2 was less than 0.05 µM. Moreover, the EC50 in assay [1] was 0.1 to 1 µM.
In the same order, the values of `CC(N)COc1cccc(-c2cnc(N)c(C(=O)Nc3cnccc3N3CCOCC3)n2)c1` (centres unmarked) [Compound 194] are less than 0.05 µM and 0.1 to 1 µM.
In the same order, the values of `Nc1ncc(-c2ccc(N3CCNCC3=O)cc2)nc1C(=O)Nc1cnccc1N1CCOCC1` [Compound 84] are 0.1 to 1 µM and 0.1 to 1 µM.
The corresponding values for `Nc1ncc(-c2ccc(CCNC(=O)OCc3ccccc3)nc2)nc1C(=O)Nc1cnccc1N1CCOCC1` [Compound 124] are 0.1 to 1 µM and 0.1 to 1 µM.
At TGFBR2, `COC(=O)[C@@H](Cc1ccc(-c2cnc(N)c(C(=O)Nc3cnccc3N3CCOCC3)n2)cc1)NC(=O)OC(C)(C)C` [Compound 192] yielded an IC50 of less than 0.05 µM. The molecule also came in with an EC50 in assay [1] of 0.1 to 1 µM.
The molecule `Nc1ncc(-c2ccc(CC(=O)N3CCN(C(=O)OCc4ccccc4)CC3)cc2)nc1C(=O)Nc1cnccc1N1CCOCC1` [Compound 90] yielded an IC50 at TGFBR2 of less than 0.05 µM. Besides, the EC50 in assay [1] is 0.05 to 0.1 µM.
The corresponding values for `Nc1ncc(-c2ccc(CCNC(=O)OCc3ccccc3)cc2)nc1C(=O)Nc1cnc2ccccc2c1N1CCOCC1` [Compound 126] are greater than 1 µM and 0.1 to 1 µM.
In turn, `NCCc1ccc(-c2cnc(N)c(C(=O)Nc3cnccc3-c3cccnc3)n2)cc1` [Compound 127] registered a half-maximal inhibitory concentration (IC50) on TGFBR2 of less than 0.05 µM. The molecule also returned an EC50 in assay [1] of 0.1 to 1 µM.
